{"source": "patent US20230277560A1", "about": "“USE OF C[…] THE TREATMENT OF SEIZURES ASSOCIATED WITH CHRNA4 MUTATION” (GW Research Limited, priority 2020, published 2023)", "tested_on": "seizures associated with CHRNA4 mutation", "assay": "Open label, expanded-access program: seizure frequency in a patient with CHRNA4 mutation", "assay_type": "in vivo, human", "conditions": "for Seizure frequency, Absence: baseline 0.0; for Seizure frequency, Absence / Seizure frequency, Tonic-clonic / Seizure frequency, Atonic / Seizure frequency, Myoclonic: concomitant rufinamide; for Seizure frequency, Tonic-clonic: baseline 0.4; for Seizure frequency, Atonic / Seizure frequency, Myoclonic: baseline 2800.0", "method": "The subject was required to be on one or more AEDs at stable doses for a minimum of two weeks prior to baseline and to have stable vagus nerve stimulation (VNS) settings and ketogenic diet ratios for a minimum of four weeks prior to baseline.\nThe patient was administered botanically derived purified CBD in a 100 mg/mL sesame oil-based solution. Dose was increased to a goal of 25 mg/kg/day.\nA maximum dose of 50 mg/kg/day could be utilised for the patient if they were tolerating the medication but had not achieved seizure control; the patient had further weekly titration by 5 mg/kg/day.\nThere was one patient in this study, and they received CBD for 24 weeks. Modifications were made to concomitant AEDs as per clinical indication.\nSeizure frequency, intensity, and duration were recorded by caregivers in a diary during a baseline period of at least 28 days. Changes in seizure frequency relative to baseline were calculated after at least 2 weeks and at defined timepoints of treatment.\nPatients may be defined as responders if they had more than 50% reduction in seizure frequency compared to baseline. The percent change in seizure frequency was calculated as follows: […]\nThe percent change of seizure frequency may be calculated for any time interval where seizure number has been recorded. For the purpose of this example the percent change of seizure frequency for the end of the treatment period was calculated as follows: […]", "key": {"[1]": {"conditions": "Patient 1, 4 weeks, CBD 15.0 mg/kg/day"}, "[2]": {"conditions": "Patient 1, 8 weeks, CBD 25.0 mg/kg/day"}, "[3]": {"conditions": "Patient 1, 12 weeks, CBD 25.0 mg/kg/day"}, "[4]": {"conditions": "Patient 1, 16 weeks, CBD 25.0 mg/kg/day"}, "[5]": {"conditions": "Patient 1, 24 weeks, CBD 23.8 mg/kg/day"}, "[6]": {"conditions": "Patient 1, treated for 24 weeks, relative to baseline"}}}
{"compound": "C=C(C)[C@@H]1CCC(C)=C[C@H]1c1c(O)cc(CCCCC)cc1O", "note": "[CBD, cannabidiol]", "values": [{"measurement": "Seizure frequency, Absence", "setting": "[1]", "value": 0.0}, {"measurement": "Seizure frequency, Tonic-clonic", "setting": "[1]", "value": 1.0}, {"measurement": "Seizure frequency, Atonic", "setting": "[1]", "value": 2800.0}, {"measurement": "Seizure frequency, Myoclonic", "setting": "[1]", "value": 2800.0}, {"measurement": "Seizure frequency, Absence", "setting": "[2]", "value": 0.0}, {"measurement": "Seizure frequency, Tonic-clonic", "setting": "[2]", "value": 0.0}, {"measurement": "Seizure frequency, Atonic", "setting": "[2]", "value": 2800.0}, {"measurement": "Seizure frequency, Myoclonic", "setting": "[2]", "value": 2800.0}, {"measurement": "Seizure frequency, Absence", "setting": "[3]", "value": 0.0}, {"measurement": "Seizure frequency, Tonic-clonic", "setting": "[3]", "value": 1.0}, {"measurement": "Seizure frequency, Atonic", "setting": "[3]", "value": 2561.0}, {"measurement": "Seizure frequency, Myoclonic", "setting": "[3]", "value": 2560.0}, {"measurement": "Seizure frequency, Absence", "setting": "[4]", "value": 84.0}, {"measurement": "Seizure frequency, Tonic-clonic", "setting": "[4]", "value": 3.0}, {"measurement": "Seizure frequency, Atonic", "setting": "[4]", "value": 1260.0}, {"measurement": "Seizure frequency, Myoclonic", "setting": "[4]", "value": 840.0}, {"measurement": "frequency of atonic and myoclonic seizures (overall statement)", "setting": "Patient 1, 24 weeks treatment", "value": "effective in reducing the frequency"}, {"measurement": "Seizure frequency, Absence", "setting": "[5]", "value": 140.0}, {"measurement": "Seizure frequency, Tonic-clonic", "setting": "[5]", "value": 18.7}, {"measurement": "Seizure frequency, Atonic", "setting": "[5]", "value": 840.0}, {"measurement": "Seizure frequency, Myoclonic", "setting": "[5]", "value": 840.0}, {"measurement": "reduction in atonic seizures over the treatment period", "setting": "[6]", "value": 70, "unit": "%"}, {"measurement": "reduction in myoclonic seizures over the treatment period", "setting": "[6]", "value": 70, "unit": "%"}, {"measurement": "number of seizures associated with CHRNA4 mutation (conclusion)", "setting": "one patient, 24 weeks treatment", "value": "significantly reduce"}, {"measurement": "tonic-clonic, atonic, myoclonic and absence seizures (summary statement)", "setting": "open label, expanded-access program, patients with CHRNA4 mutation", "value": "significant reduction"}]}
